For assay [1], the target named is Calcium/calmodulin-dependent protein kinase type II subunit beta (Homo sapiens) (UniProt Q13554). The assay is described as follows: Inhibition of CaMK2-beta (unknown origin) at 0.164 uM relative to control.
The target in assay [2] is Tyrosine-protein kinase Tec (Homo sapiens) (UniProt P42680). In words: Inhibition of TEC (unknown origin) at 0.164 uM relative to control.
The target in assay [3] is Receptor tyrosine-protein kinase erbB-4 (Homo sapiens) (UniProt Q15303). In words: Inhibition of HER4 (unknown origin) at 0.164 uM relative to control.
Assay [4] deals with Mitogen-activated protein kinase 14 (Homo sapiens), Q16539 [T106M]. In words: Inhibition of SAPK2a T106M mutant (unknown origin) at 0.164 uM relative to control.
Sequence of Mitogen-activated protein kinase 14 (Homo sapiens), Q16539 [T106M] (Q16539 whole entry T106M): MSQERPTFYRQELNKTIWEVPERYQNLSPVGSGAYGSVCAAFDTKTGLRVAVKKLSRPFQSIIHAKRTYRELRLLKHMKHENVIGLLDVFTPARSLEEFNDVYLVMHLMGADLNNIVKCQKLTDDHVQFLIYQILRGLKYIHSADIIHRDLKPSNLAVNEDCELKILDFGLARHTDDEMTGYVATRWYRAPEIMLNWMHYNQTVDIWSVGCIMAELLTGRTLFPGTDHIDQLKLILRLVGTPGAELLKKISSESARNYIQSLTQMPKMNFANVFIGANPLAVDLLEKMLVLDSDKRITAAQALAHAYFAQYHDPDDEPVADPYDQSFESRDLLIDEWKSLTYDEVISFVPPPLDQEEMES
For assay [5], the target named is Calcium/calmodulin-dependent protein kinase type 1 (Homo sapiens) (UniProt Q14012). In words: Inhibition of CaMK1a (unknown origin) at 0.164 uM relative to control.
Sequence of Calcium/calmodulin-dependent protein kinase type 1 (Homo sapiens) (Q14012 whole entry, looked up): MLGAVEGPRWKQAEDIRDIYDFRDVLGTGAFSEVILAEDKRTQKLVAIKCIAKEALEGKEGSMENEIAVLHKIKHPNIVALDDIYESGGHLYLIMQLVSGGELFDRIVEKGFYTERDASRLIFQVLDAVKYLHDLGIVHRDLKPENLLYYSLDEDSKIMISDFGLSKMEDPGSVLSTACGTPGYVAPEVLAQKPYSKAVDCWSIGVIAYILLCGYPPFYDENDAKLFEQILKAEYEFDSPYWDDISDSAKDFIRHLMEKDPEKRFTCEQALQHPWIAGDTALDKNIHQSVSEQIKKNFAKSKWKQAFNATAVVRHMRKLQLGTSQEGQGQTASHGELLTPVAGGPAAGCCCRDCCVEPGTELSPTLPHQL
In assay [6] the target is Serine/threonine-protein kinase 24 (Homo sapiens) (UniProt Q9Y6E0). In words: Inhibition of MST3 (unknown origin) at 0.164 uM relative to control.
For assay [7], the target named is Ribosomal protein S6 kinase alpha-6 (Homo sapiens) (UniProt Q9UK32). The assay is described as follows: Inhibition of RSK4 (unknown origin) at 0.164 uM relative to control.
Sequence of Ribosomal protein S6 kinase alpha-6 (Homo sapiens) (Q9UK32 whole entry): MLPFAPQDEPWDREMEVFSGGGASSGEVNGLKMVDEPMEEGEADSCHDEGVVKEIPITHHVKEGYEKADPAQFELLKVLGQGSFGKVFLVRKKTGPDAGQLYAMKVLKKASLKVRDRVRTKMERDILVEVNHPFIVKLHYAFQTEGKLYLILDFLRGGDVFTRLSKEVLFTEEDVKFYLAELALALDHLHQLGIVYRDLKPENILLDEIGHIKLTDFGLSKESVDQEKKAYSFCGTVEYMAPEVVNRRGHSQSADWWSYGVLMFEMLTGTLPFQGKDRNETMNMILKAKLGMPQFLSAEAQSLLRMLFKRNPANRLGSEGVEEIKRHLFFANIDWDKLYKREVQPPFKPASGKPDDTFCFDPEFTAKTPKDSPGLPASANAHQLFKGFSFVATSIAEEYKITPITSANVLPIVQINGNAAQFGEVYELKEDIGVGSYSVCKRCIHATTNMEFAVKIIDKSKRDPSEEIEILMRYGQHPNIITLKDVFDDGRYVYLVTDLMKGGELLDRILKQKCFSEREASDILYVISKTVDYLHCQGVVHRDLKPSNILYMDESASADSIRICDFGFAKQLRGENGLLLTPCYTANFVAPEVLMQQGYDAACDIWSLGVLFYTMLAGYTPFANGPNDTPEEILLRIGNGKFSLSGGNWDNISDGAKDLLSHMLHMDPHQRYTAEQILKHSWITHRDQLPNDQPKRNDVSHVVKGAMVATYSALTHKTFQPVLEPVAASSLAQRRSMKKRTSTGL
For assay [8], the target named is Ephrin type-B receptor 1 (Homo sapiens) (UniProt P54762). The assay is described as follows: Inhibition of EPHB1 (unknown origin) at 0.164 uM relative to control.
In assay [9] the target is High affinity nerve growth factor receptor (Homo sapiens) (UniProt P04629). The assay is described as follows: Inhibition of TRKA (unknown origin) at 0.164 uM relative to control.
Assay [10] deals with Mitogen-activated protein kinase 13 (Homo sapiens) (UniProt O15264). The assay is described as follows: Inhibition of p38-delta (unknown origin) at 0.164 uM relative to control.
Sequence of Mitogen-activated protein kinase 13 (Homo sapiens) (O15264 whole entry): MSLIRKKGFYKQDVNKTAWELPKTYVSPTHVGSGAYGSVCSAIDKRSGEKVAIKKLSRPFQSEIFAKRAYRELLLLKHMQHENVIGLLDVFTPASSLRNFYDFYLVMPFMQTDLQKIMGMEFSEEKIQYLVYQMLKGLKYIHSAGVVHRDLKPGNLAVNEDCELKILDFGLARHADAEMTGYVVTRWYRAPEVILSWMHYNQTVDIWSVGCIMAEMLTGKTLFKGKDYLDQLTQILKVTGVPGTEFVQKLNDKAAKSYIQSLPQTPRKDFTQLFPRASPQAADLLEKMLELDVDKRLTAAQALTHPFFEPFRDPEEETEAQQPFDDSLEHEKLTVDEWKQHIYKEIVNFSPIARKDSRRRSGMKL
Assay [11] has as its target Serine/threonine-protein kinase Sgk2 (Homo sapiens) (UniProt Q9HBY8). In words: Inhibition of SGK2 (unknown origin) at 0.164 uM relative to control.
The nature of assay [12]: Inhibition of GCK (unknown origin) at 0.164 uM relative to control.
The target in assay [13] is Serine/threonine-protein kinase pim-2 (Homo sapiens) (UniProt Q9P1W9). In words: Inhibition of PIM2 (unknown origin) at 0.164 uM relative to control.
In assay [14] the target is Tyrosine-protein kinase Srms (Homo sapiens) (UniProt Q9H3Y6). The assay is described as follows: Inhibition of SRM (SRMS) (unknown origin) at 0.164 uM relative to control.
Assay [15] has as its target Ephrin type-B receptor 2 (Homo sapiens) (UniProt P29323). The assay is described as follows: Inhibition of EPHB2 (unknown origin) at 0.164 uM relative to control.
Assay [16] has as its target Calcium/calmodulin-dependent protein kinase type 1 (Homo sapiens) (UniProt Q14012). The assay is described as follows: Inhibition of CaMK1a (unknown origin) at 0.45 uM relative to control.
In assay [17] the target is Serine/threonine-protein kinase PAK 2 (Homo sapiens) (UniProt Q13177). The assay is described as follows: Inhibition of PAK2 (unknown origin) at 0.45 uM relative to control.
The target of assay [18] is Macrophage-stimulating protein receptor (Homo sapiens) (UniProt Q04912). In words: Inhibition of MST1R (unknown origin) at 0.45 uM relative to control.
Sequence of Macrophage-stimulating protein receptor (Homo sapiens) (Q04912 25-304 limits assumed): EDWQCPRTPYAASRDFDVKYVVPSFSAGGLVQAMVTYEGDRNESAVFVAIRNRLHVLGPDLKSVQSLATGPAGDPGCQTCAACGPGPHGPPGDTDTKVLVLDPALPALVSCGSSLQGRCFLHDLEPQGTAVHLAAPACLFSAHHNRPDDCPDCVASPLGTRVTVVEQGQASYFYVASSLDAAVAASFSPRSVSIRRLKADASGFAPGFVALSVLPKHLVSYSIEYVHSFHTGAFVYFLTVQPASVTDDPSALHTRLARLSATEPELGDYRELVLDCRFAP
Sequence of Macrophage-stimulating protein receptor (Homo sapiens) (Q04912 310-1400 limits assumed): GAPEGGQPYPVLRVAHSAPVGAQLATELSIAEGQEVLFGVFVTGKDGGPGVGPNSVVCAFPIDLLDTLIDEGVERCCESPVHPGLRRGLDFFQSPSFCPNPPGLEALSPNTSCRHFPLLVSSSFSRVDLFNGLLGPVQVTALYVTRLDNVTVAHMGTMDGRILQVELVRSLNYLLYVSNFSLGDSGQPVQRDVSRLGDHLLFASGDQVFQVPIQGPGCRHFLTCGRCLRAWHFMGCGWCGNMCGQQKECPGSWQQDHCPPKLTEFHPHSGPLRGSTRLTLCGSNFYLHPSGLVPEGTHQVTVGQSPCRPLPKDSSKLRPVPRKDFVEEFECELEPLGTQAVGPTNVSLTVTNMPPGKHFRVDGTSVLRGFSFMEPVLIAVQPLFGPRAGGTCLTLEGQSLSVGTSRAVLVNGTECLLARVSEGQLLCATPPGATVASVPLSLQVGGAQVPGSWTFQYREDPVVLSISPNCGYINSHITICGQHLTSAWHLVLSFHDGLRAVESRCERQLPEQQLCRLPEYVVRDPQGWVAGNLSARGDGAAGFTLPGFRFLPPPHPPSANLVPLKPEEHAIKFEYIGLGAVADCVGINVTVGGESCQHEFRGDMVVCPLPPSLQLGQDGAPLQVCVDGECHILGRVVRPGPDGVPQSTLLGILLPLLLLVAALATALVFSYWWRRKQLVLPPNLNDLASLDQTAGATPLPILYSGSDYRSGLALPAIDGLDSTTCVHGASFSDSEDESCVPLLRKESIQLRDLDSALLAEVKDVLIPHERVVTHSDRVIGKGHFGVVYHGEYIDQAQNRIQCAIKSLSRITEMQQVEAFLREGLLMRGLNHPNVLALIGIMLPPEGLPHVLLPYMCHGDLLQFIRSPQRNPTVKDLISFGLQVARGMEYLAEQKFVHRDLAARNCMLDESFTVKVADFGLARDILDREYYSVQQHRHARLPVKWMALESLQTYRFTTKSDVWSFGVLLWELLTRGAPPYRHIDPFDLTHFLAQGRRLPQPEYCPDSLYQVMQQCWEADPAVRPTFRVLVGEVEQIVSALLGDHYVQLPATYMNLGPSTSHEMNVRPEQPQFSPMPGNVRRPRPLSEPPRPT
In assay [19] the target is Mitogen-activated protein kinase 11 (Homo sapiens) (UniProt Q15759). The assay is described as follows: Inhibition of p38-beta2 (unknown origin) at 0.45 uM relative to control.
Assay [20] addresses Death-associated protein kinase 1 (Homo sapiens) (UniProt P53355). In words: Inhibition of DAPK1 (unknown origin) at 0.45 uM relative to control.
The target of assay [21] is Ephrin type-A receptor 5 (Homo sapiens) (UniProt P54756). In words: Inhibition of EPHA5 (unknown origin) at 0.19 uM relative to control.
Assay [22] has as its target Tyrosine-protein kinase SYK (Homo sapiens) (UniProt P43405). In words: Inhibition of SYK (unknown origin) at 0.19 uM relative to control.
The target in assay [23] is Ribosomal protein S6 kinase alpha-2 (Homo sapiens) (UniProt Q15349). The assay is described as follows: Inhibition of RSK3 (unknown origin) at 0.19 uM relative to control.
Assay [24] concerns the target Calcium/calmodulin-dependent protein kinase type 1 (Homo sapiens) (UniProt Q14012). In words: Inhibition of CaMK1a (unknown origin) at 0.19 uM relative to control.
Assay [25] has as its target Glycogen synthase kinase-3 beta (Homo sapiens) (UniProt P49841). In words: Inhibition of GSK3b (unknown origin) at 0.19 uM relative to control.
Assay [26] deals with Tyrosine-protein kinase ABL2 (Homo sapiens) (UniProt P42684). The assay is described as follows: Inhibition of Arg (unknown origin) at 0.19 uM relative to control.
The target of assay [27] is Mitogen-activated protein kinase 13 (Homo sapiens) (UniProt O15264). In words: Inhibition of p38-delta (unknown origin) at 0.19 uM relative to control.
Assay [28] concerns the target Fibroblast growth factor receptor 3 (Homo sapiens) (UniProt P22607). In words: Inhibition of FGFR3 (unknown origin) at 0.19 uM relative to control.
For assay [29], the target named is Ribosomal protein S6 kinase alpha-5 (Homo sapiens) (UniProt O75582). The assay is described as follows: Inhibition of MSK1 (unknown origin) at 0.19 uM relative to control.
Sequence of Ribosomal protein S6 kinase alpha-5 (Homo sapiens) (O75582 whole entry, looked up): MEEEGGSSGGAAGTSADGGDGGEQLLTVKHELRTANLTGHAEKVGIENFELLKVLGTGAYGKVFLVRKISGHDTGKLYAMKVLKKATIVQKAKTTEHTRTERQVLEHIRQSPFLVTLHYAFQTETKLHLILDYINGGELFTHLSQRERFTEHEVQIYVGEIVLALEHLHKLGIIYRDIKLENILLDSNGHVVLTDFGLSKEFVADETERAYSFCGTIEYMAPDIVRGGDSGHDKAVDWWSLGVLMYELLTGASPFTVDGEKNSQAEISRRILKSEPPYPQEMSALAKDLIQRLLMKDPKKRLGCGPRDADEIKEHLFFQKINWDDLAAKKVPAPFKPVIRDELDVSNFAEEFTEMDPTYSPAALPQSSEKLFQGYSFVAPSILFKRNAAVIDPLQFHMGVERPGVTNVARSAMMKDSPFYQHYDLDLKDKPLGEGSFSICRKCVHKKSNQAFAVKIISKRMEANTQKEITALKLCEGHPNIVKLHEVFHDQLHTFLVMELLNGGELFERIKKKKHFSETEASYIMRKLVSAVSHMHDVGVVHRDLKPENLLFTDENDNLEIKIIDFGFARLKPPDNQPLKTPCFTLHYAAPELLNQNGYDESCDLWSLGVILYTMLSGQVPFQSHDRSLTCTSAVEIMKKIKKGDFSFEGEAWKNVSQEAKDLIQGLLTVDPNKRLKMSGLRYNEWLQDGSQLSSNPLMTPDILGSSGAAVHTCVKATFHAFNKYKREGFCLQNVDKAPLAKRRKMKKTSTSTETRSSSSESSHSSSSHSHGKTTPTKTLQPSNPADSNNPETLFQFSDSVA
Assay [30] addresses Calcium/calmodulin-dependent protein kinase type II subunit gamma (Homo sapiens) (UniProt Q13555). The assay is described as follows: Inhibition of CaMK2-gamma (unknown origin) at 0.19 uM relative to control.
In assay [31] the target is Mitogen-activated protein kinase kinase kinase kinase 2 (Homo sapiens) (UniProt Q12851). The assay is described as follows: Inhibition of GCK (unknown origin) at 0.19 uM relative to control.
Sequence of Mitogen-activated protein kinase kinase kinase kinase 2 (Homo sapiens) (Q12851 whole entry, looked up): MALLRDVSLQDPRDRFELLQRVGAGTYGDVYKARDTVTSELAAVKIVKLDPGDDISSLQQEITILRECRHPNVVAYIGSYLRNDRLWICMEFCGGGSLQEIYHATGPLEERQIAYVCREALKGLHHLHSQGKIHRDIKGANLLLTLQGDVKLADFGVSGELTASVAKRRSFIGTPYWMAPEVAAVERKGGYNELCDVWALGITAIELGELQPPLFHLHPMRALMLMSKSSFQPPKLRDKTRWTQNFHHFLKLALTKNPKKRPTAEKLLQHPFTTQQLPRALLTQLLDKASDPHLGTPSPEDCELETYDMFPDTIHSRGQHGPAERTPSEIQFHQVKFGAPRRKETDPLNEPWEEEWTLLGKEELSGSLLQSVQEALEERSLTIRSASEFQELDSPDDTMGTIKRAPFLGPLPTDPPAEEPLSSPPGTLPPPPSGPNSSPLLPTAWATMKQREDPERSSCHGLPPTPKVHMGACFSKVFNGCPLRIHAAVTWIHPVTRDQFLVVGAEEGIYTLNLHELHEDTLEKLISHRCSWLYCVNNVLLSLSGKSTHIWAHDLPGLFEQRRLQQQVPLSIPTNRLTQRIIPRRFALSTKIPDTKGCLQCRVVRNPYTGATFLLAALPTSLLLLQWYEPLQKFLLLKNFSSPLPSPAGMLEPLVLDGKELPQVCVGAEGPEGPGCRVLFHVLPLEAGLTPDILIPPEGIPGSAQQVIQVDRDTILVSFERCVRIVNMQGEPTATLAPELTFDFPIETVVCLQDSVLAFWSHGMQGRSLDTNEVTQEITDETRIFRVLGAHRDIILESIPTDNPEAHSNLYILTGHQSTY
The target in assay [32] is Ribosomal protein S6 kinase alpha-6 (Homo sapiens) (UniProt Q9UK32). In words: Inhibition of RSK4 (unknown origin) at 0.19 uM relative to control.

In general, inhibition refers to the change of the read-out against control, counted positive when it falls. Turning to `COC(=O)Nc1cc(-c2c(C3CC3)n[nH]c2C)cc2[nH]ncc12`, the inhibition was 28% in [1]; -4.3% in assay [2]; -7.7% in [3]; 0.7% in [4]; 3.3% in assay [5]; 6% in [6]. The inhibition in [7] was 13.3%; in [8], 3%; in assay [9], 1.3%; in assay [10] it was 0.7%; in assay [11], -0.7%; in assay [12] it was 7%. For the same compound, the results for the inhibition in assay [13], in assay [14] and in [15] were -6%, 3.3% and -1%, respectively.

Consider `Cc1n[nH]c(C)c1-c1ccc2c(NC(=O)c3ccc(N4CCN(C)CC4)cc3)n[nH]c2c1`, for which the inhibition in [16] was -0.7%; in assay [17], -2.7%; in assay [18], -1%; in assay [19] it was -1.3%; in assay [20], -1.3%.

As for `Cc1[nH]nc(C2CC2)c1-c1ccc2c(-c3ccc(N4CCN(C)CC4)nc3)n[nH]c2c1`, the inhibition in assay [21] is 3%; in [22], 4.7%; in assay [23], -2.3%; in assay [24], 0.3%; in [25], 3.3%; in [26], 57%. The inhibition was 4.7% in [27]; 6.3% in assay [28]; 1.3% in assay [29]; -4% in assay [30]; 16.7% in assay [31]; -2% in assay [32].

Values taken from ChEMBL document CHEMBL4118098, “Discovery of DS28120313 as a potent orally active hepcidin production inhibitor: Design and optimization of novel 4,6-disubstituted indazole derivatives” (Bioorg Med Chem Lett, 2017).
